Test results as given in PMC9573294, “AVA-NP-695 Selectively Inhibits ENPP1 to Activate STING Pathway and Abrogate Tumor Metastasis in 4T1 Breast Cancer Syngeneic Mouse Model” (Molecules, 2022).

Molecular target: T1, Ectonucleotide pyrophosphatase/phosphodiesterase 1 (ENPP1) (Homo sapiens, UniProt P22413)
T1 construct: Human recombinant ENPP1 (rENPP1)
T1 sequence (P22413 98-925 limits assumed): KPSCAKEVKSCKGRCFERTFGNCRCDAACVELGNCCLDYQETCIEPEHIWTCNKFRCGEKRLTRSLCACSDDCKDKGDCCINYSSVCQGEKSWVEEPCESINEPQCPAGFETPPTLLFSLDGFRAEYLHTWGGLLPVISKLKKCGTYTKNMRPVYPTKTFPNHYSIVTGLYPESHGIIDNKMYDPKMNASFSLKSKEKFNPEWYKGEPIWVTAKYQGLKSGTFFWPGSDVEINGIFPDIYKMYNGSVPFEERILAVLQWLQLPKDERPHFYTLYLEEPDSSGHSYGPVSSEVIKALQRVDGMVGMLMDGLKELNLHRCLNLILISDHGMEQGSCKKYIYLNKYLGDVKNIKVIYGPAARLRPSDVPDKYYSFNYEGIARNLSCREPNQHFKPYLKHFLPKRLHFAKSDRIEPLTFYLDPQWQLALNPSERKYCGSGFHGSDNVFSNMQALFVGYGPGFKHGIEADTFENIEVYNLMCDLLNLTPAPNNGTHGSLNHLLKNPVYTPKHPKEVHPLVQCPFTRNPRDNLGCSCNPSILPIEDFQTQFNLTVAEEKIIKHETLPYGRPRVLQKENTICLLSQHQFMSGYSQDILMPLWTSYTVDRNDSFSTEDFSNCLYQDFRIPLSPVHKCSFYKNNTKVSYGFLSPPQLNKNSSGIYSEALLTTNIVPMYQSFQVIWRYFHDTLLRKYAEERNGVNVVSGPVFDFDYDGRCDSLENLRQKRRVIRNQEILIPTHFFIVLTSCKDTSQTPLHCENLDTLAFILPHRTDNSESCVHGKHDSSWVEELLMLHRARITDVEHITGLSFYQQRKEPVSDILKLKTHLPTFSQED
Experiment: enzymatic assay with p-Nph-5'-TMP substrate (Ki […] with […]'[…]'-cGAMP and […] with p-NPh-5'-TMP also printed)
Assay type: biochemical

Work on AVA-NP-695 yielded an IC50 of 14 ± 2 nM.
